# Experimental data published in patent publication US20060148796A1, “6-Substituted imidazopyrazines” (priority 2003, published 2006).
# Test system: pentagastrin-stimulated acid secretion of the perfused rat stomach
# Assay: Secretion-inhibiting action on the perfused rat stomach (pentagastrin-stimulated acid secretion, intraduodenal administration in vivo)
# Conditions: dose 1 μmol/kg i.d., perfused stomach of anesthetized CD rat, female
# Excerpt: Testing of the Secretion-Inhibiting Action on the Perfused Rat Stomach
# In Table A which follows, the influence of the compounds according to the invention on the pentagastrin-stimulated add secretion of the perfused rat stomach after intraduodenal administration in vivo is shown.
# The abdomen of anesthetized rats (CD rat, female, 200-250 g; 1.5 g/kg Im. urethane) was opened after tracheotomy by a median upper abdominal incision and a PVC catheter was fixed transorally in the esophagus and another via the pylorus such that the ends of the tubes just projected into the gastric lumen. The catheter leading from the pylorus led outward into the right abdominal wall through a side opening.
# After thorough rinsing (about 50-100 ml), warm (37° C.) physiological NaCl solution was continuously passed through the stomach (0.5 ml/min, pH 6.8-6.9; Braun-Unita I). The pH (pH meter 632, glass electrode EA 147; φ=5 mm, Metrohm) and, by titration with a freshly prepared 0.01N NaOH solution to pH 7 (Dosimat 665 Metrohm), the secreted HCl were determined in the effluent in each case collected at an interval of 15 minutes.
# The gastric secretion was stimulated by continuous infusion of […] (=1.65 ml/h) of i.v. pentagastrin (left femoral vein) about 30 min after the end of the operation (.e. after determination of 2 preliminary fractions). […]
row,Structure (SMILES),Inhibition of acid secretion (%)
1,"CCc1cccc(C)c1CNc1nc(C(=O)N(C)C)cn2c(C)c(C)nc12 [Example 5, 6-(Dimethylaminocarbonyl)-8-(2-ethyl-6-methyl-benzylamino)-2,3-dimethyl-imidazo[1,2a]-pyrazine]",49%
2,"CCc1cccc(C)c1CNc1nc(COC)cn2c(C)c(C)nc12.Cl [Example 13, 8-(2-Ethyl-6-methyl-benzylamino)-6-(methoxymethyl)-2,3-dimethyl-imidazo[1,2-a]pyrazine hydrochloride]",46%

# Test system: not given
# Assay: not given
# Conditions: not given
row,Structure (SMILES),melting point
1,"CCc1cccc(C)c1CNc1nc(Br)cn2c(C)c(C)nc12.O=C(O)C(=O)O [Example 3, 6-Bromo-8(2-ethyl-6-methyl-benzylamino)-2,3-dimethyl-imidazo[1,2-a]pyrazine oxalate]",163 °C
2,"CCOC(=O)c1cn2c(C)c(C)nc2c(NCc2c(C)cccc2CC)n1 [Example 4, Ethyl 8-(2-ethyl-6-methyl-benzylamino)-2,3-dimethyl-imidazo[1,2-a]pyrazine-6-carboxylate]",144 °C
3,"CCc1cccc(C)c1CNc1nc(C(=O)O)cn2c(C)c(C)nc12 [Example 6, 8-(2-Ethyl-6-methyl-benzylamino)-2,3-dimethyl-imidazo[1,2-a]pyrazine-6-carboxylic acid]",230 °C
4,"CCc1cccc(C)c1CNc1nc(C(=O)N2CCCC2)cn2c(C)c(C)nc12 [Example 7, 8-(2-Ethyl-6-methyl-benzylamino)-6-(pyrrolidinocarbonyl)-2,3-dimethyl-imidazo[1,2-a]pyrazine]",197 °C
5,"CCc1cccc(C)c1CNc1nc(CO)cn2c(C)c(C)nc12 [Example 12, 8-(2-Ethyl-6-methyl-benzylamino)-6-(hydroxymethyl)-2,3-dimethyl-imidazo[1,2-a]pyrazine]",166 °C
6,"CCc1cccc(C)c1CNc1nc(COC)cn2c(C)c(C)nc12.Cl [Example 13, 8-(2-Ethyl-6-methyl-benzylamino)-6-(methoxymethyl)-2,3-dimethyl-imidazo[1,2-a]pyrazine hydrochloride]",177 °C
